One block for each compound: values may come before it.
Tests used:
[1] = target: T1, Histone deacetylase 8 (Homo sapiens, UniProt Q9BY41); test: Inhibition of human recombinant HDAC8 using AMC-K(Ac)GL as substrate by fluorescence based assay
T1 sequence (Q9BY41 whole entry): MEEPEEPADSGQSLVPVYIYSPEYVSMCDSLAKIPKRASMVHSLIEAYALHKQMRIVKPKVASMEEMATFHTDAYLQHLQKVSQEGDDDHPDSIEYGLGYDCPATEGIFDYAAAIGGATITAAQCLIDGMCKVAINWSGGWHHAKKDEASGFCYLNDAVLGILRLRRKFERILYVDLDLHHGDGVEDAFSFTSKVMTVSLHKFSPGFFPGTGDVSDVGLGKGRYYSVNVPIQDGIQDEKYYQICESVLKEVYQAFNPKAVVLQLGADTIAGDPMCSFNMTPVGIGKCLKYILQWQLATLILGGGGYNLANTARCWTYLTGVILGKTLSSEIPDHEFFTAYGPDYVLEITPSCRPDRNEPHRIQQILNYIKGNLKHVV

[2] = test system: Jurkat E6.1; test: Cytotoxicity against human Jurkat E6.1 cells assessed as reduction in cell viability incubated for 72 hrs by MTT assay; type: functional, cell-based; conditions: Jurkat E6.1, 72 h
[3] = target: Macrophage metalloelastase (Homo sapiens, UniProt P39900); test: Inhibition of MMP-12 (unknown origin)
Sequence of Macrophage metalloelastase (P39900 whole entry): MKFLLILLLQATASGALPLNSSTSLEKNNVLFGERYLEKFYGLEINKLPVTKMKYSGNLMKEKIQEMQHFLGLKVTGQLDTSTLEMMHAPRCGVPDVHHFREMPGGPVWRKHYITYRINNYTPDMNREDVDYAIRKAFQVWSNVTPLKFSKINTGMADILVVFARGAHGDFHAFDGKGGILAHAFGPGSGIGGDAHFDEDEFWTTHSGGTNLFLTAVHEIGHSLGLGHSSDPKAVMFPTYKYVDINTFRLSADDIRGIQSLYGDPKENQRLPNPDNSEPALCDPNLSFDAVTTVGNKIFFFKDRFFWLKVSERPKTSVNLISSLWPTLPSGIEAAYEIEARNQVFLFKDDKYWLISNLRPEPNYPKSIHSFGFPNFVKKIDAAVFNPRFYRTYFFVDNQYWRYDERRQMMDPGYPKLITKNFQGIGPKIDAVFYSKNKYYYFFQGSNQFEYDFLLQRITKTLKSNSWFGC

[4] = target: Histone deacetylase; test: Inhibition of HDAC (unknown origin) using Fluoro-Substrate Peptide as substrate by fluorescence assay; type: protein assay, Homo sapiens
[5] = target: T1, Histone deacetylase 8; test: Inhibition of HDAC8 (unknown origin) using as Fluor-de-lys substrate by fluorescence based analysis
[6] = target: Neutrophil collagenase (Homo sapiens, UniProt P22894); test: Inhibition of MMP-8 (unknown origin)
Sequence of Neutrophil collagenase (P22894 whole entry): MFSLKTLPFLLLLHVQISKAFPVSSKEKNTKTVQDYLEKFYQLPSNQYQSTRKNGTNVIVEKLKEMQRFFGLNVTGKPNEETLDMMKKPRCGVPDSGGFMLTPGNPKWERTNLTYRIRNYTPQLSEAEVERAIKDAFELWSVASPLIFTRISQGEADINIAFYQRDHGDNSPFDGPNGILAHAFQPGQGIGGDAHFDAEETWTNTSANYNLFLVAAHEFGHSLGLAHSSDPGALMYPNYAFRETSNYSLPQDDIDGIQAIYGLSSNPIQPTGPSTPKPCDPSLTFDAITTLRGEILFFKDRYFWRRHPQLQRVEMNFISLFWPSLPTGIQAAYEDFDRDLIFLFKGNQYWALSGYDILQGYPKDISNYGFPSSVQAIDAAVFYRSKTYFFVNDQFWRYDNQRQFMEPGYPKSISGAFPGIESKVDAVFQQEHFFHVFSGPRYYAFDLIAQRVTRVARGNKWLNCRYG

[7] = target: 72 kDa type IV collagenase (Homo sapiens, UniProt P08253); test: Inhibition of MMP-2 (unknown origin)
Sequence of 72 kDa type IV collagenase (P08253 whole entry): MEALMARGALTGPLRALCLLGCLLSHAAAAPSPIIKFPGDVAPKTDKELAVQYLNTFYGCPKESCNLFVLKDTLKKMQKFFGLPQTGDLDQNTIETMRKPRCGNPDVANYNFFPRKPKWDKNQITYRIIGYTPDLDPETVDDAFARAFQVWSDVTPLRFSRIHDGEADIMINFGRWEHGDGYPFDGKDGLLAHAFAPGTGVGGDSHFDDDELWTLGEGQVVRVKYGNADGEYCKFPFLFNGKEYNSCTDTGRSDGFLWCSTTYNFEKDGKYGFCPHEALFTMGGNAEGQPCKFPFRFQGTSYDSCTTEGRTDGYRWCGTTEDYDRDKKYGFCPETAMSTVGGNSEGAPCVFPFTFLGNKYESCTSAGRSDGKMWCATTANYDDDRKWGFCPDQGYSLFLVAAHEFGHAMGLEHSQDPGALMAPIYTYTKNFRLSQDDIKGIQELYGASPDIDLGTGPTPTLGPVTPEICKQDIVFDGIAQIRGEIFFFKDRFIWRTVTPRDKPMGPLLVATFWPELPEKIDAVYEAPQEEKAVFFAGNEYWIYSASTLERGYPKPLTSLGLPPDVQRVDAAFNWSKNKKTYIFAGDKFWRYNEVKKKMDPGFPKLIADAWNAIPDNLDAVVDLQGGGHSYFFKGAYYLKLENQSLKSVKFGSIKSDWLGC

[8] = target: Matrix metalloproteinase-9 (Homo sapiens, UniProt P14780); test: Inhibition of MMP-9 (unknown origin)
Sequence of Matrix metalloproteinase-9 (P14780 whole entry): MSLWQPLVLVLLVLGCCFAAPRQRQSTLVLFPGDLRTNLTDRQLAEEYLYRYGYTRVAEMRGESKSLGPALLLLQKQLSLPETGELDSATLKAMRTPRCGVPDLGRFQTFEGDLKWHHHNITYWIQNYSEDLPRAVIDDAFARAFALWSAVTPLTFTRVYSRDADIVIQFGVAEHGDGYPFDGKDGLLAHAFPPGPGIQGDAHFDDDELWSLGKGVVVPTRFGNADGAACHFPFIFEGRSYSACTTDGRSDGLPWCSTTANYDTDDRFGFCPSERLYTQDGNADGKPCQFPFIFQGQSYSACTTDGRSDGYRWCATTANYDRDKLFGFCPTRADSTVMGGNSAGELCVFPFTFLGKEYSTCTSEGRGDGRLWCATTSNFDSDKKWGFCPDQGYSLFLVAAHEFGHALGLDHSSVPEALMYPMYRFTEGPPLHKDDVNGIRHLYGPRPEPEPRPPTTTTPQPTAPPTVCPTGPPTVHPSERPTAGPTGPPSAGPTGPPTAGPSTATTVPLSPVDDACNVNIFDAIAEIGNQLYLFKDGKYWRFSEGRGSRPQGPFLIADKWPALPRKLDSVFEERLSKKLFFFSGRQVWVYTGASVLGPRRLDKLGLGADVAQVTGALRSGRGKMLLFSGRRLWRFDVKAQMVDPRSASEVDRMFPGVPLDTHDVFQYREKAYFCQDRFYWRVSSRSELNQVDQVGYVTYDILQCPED

[9] = target: Matrix metalloproteinase-14 (Homo sapiens, UniProt P50281); test: Inhibition of MMP-14 (unknown origin)
[10] = target: T1, Histone deacetylase 8; test: Inhibition of HDAC8 (unknown origin) by fluorescence based assay
[11] = test system: U-937; test: Cytotoxicity against human U-937 cells assessed as reduction in cell viability; type: functional, cell-based
[12] = test system: Jurkat E6.1; test: Cytotoxicity against human Jurkat E6.1 cells assessed as reduction in cell viability; type: functional, cell-based
[13] = test system: MOLT-4; test: Cytotoxicity against human MOLT-4 cells assessed as reduction in cell viability; type: functional, cell-based
[14] = target: T1, Histone deacetylase 8; test: Inhibition of human recombinant HDAC8 using fluorogenic HDAC substrate class 2A preincubated for 30 mins followed by substrate addition and measured after 15 mins by fluorogenic assay
[15] = target: T2, Histone deacetylase 8 (Homo sapiens) (UniProt Q9BY41); test: Inhibition of His-tagged recombinant HDAC8 (unknown origin) at 10 uM using Boc-Lys(triflouroacetyl)-AMC as fluorogenic substrate pre-incubated for 30 mins followed by substrate addition and measured after 30 mins by fluorescence based analysis relative to control; conditions: time 60.0 min
T2 sequence (whole entry): T1 sequence (Q9BY41 whole entry)

[16] = target: T1, Histone deacetylase 8; test: Inhibition of HDAC8 (unknown origin)
[17] = test system: Jurkat; test: Cytotoxicity against human Jurkat cells assessed as reduction in cell viability incubated for 24 hrs by CellTiter-Glo luminescent cell viability assay; type: functional
[18] = target: Histone deacetylase 1 (Homo sapiens, UniProt Q13547); test: Inhibition of HDAC1 (unknown origin) using Ac-Leu-Gly-Lys(Ac)-AMC as substrate pre-incubated for 30 mins followed by substrate addition and measured after 30 mins by fluorescence based analysis
Sequence of Histone deacetylase 1 (Q13547 whole entry): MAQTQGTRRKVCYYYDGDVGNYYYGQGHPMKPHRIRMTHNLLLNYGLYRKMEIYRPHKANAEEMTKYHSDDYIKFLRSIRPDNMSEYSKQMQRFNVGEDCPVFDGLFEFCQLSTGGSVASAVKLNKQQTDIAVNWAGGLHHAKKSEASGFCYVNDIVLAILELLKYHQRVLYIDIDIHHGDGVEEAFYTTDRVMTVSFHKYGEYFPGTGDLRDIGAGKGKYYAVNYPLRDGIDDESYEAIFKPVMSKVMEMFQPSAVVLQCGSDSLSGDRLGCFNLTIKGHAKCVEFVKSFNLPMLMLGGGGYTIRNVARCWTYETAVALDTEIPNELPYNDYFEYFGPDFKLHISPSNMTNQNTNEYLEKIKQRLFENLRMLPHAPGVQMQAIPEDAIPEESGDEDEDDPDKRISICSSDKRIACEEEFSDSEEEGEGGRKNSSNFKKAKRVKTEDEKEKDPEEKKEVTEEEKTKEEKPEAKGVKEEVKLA

[19] = target: Histone deacetylase 2 (Homo sapiens, UniProt Q92769); test: Inhibition of HDAC2 (unknown origin) assessed as release of fluorogenic AMC pre-incubated for 15 mins followed by addition of trypsin and substrate measured after 60 mins microplate reader analysis
Sequence of Histone deacetylase 2 (Q92769 whole entry): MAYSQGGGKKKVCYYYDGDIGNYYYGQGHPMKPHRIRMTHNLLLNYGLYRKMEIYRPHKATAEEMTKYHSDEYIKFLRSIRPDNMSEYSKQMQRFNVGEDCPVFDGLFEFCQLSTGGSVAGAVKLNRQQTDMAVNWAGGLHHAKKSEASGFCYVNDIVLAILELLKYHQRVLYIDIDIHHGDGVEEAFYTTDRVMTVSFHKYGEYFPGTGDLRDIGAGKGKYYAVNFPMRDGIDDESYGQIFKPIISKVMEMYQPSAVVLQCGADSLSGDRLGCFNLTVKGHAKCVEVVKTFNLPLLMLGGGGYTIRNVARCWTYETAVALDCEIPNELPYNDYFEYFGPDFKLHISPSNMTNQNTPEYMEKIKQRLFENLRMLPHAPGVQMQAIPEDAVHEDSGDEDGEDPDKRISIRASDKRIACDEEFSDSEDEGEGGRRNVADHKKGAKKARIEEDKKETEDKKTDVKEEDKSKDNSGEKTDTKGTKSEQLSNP

[20] = target: Histone deacetylase 3 (Homo sapiens, UniProt O15379); test: Inhibition of HDAC3 (unknown origin) assessed as release of fluorogenic AMC pre-incubated for 15 mins followed by addition of trypsin and substrate measured after 60 mins microplate reader analysis
Sequence of Histone deacetylase 3 (O15379 whole entry): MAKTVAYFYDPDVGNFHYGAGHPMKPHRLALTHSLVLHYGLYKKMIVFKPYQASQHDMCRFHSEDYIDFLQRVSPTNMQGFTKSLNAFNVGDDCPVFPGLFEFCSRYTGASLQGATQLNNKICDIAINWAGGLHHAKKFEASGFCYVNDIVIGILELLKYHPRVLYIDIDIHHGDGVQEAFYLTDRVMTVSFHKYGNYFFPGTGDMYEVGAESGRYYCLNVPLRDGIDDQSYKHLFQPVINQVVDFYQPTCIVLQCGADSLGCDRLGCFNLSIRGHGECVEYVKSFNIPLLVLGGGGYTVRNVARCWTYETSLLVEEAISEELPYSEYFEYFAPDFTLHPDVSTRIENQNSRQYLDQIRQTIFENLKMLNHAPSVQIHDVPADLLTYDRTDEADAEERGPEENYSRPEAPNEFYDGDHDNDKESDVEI

[21] = target: T3, Histone deacetylase 4 (Homo sapiens, UniProt P56524); test: Inhibition of HDAC4 (unknown origin) assessed as release of fluorogenic AMC pre-incubated for 15 mins followed by addition of trypsin and substrate measured after 60 mins microplate reader analysis
T3 sequence (P56524 whole entry): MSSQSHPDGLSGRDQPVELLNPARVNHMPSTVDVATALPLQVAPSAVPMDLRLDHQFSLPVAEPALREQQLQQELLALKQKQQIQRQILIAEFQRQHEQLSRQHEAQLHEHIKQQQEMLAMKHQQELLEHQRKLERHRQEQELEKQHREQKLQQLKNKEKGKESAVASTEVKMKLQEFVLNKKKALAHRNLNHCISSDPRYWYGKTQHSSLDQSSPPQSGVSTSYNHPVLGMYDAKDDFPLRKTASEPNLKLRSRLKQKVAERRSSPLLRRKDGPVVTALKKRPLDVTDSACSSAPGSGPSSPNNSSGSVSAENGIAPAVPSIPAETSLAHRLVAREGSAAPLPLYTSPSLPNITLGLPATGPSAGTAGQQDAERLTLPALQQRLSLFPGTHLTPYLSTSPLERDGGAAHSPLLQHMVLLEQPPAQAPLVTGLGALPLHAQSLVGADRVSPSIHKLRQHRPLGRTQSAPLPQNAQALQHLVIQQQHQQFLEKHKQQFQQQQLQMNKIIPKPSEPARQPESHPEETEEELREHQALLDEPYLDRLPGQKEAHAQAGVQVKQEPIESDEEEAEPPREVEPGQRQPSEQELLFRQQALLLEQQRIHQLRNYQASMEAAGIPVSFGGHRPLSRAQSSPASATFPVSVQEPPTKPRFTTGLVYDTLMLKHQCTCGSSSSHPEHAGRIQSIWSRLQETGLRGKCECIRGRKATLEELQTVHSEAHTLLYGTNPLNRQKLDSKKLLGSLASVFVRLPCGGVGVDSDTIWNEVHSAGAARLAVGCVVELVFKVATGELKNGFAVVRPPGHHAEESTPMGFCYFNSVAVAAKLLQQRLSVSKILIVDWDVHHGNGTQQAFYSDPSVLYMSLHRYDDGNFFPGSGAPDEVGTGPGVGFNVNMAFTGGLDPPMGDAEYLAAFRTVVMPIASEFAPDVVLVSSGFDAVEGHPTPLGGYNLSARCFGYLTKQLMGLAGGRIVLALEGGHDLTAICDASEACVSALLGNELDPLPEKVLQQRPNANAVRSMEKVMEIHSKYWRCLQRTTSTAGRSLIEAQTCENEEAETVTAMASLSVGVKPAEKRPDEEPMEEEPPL

[22] = Inhibition of HDAC6 (unknown origin) assessed as release of fluorogenic AMC pre-incubated for 15 mins followed by addition of trypsin and substrate measured after 60 mins microplate reader analysis; design: species or system Homo sapiens
[23] = target: T1, Histone deacetylase 8; test: Inhibition of HDAC8 (unknown origin) assessed as release of fluorogenic AMC pre-incubated for 15 mins followed by addition of trypsin and substrate measured after 60 mins microplate reader analysis
[24] = target: T4, Polyamine deacetylase HDAC10 (Homo sapiens, UniProt Q969S8); test: Inhibition of HDAC10 (unknown origin) assessed as release of fluorogenic AMC pre-incubated for 15 mins followed by addition of trypsin and substrate measured after 60 mins microplate reader analysis
T4 sequence (Q969S8 whole entry): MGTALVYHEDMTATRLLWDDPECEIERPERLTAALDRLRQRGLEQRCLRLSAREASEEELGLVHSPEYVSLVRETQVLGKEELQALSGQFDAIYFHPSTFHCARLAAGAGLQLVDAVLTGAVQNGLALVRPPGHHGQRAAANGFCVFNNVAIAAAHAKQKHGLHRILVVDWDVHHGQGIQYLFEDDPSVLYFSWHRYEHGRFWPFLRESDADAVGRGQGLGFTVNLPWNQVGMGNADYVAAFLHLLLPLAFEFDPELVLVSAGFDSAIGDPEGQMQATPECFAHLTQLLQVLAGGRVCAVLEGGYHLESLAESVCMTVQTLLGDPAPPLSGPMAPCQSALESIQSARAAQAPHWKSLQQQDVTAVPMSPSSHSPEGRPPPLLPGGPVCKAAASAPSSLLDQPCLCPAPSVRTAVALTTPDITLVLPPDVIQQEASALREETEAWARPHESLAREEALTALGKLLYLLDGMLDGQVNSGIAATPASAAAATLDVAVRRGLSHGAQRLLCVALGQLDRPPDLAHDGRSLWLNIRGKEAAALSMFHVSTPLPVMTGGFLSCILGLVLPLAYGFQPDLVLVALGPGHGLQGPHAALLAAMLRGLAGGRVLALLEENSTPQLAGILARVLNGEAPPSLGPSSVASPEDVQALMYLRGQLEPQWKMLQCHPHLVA

[25] = target: T3, Histone deacetylase 4; test: Inhibition of HDAC4 (unknown origin)
[26] = target: T4, Polyamine deacetylase HDAC10; test: Inhibition of HDAC10 (unknown origin)
[27] = test system: Jurkat; test: cells; type: functional; conditions: Homo sapiens
Description: Growth inhibition of human Jurkat cells

[28] = test system: MOLT-4; test: cells; type: functional; conditions: Homo sapiens, time 24 hrs
Description: Growth inhibition of human MOLT-4 cells measured after 24 hrs by MTT assay

[29] = test system: THP-1; test: cells; type: functional; conditions: Homo sapiens
Description: Growth inhibition of human THP-1 cells

[30] = test system: MCF7; test: Antiproliferative activity against human MCF7 cells assessed as reduction in cell viability incubated for 24 hrs by MTT assay; type: functional, cell-based; conditions: MCF7, 24 h
[31] = test system: MDA-MB-231; test: Antiproliferative activity against human MDA-MB-231 cells assessed as reduction in cell viability incubated for 24 hrs by MTT assay; type: functional, cell-based; conditions: MDA-MB-231, 24 h
[32] = test system: HeLa; test: Growth inhibition of human HeLa cells incubated for 72 hrs by trypan blue assay; type: functional

- IC50 [1]: 0.12 µM
Structure (SMILES): O=C(NO)c1cccc(-c2nc(CSc3ccccc3)no2)c1

Structure (SMILES): CCCCCNC(=O)[C@H](CCC(=O)NO)NC(=O)Cc1ccccc1Br
- IC50 [2]: > 50 µM

Structure (SMILES): CC(C)CNC(=O)[C@H](CCC(=O)NO)NC(=O)Cc1ccccc1F
- IC50 [2]: > 50 µM

- IC50 [3]: 138 µM
- IC50 [4]: > 10 µM
- IC50 [5]: 2.89 µM
- IC50 [6]: 206 µM
- IC50 [7]: 6.4 µM
- IC50 [8]: 4.83 µM
- IC50 [9]: 56.6 µM
- IC50 [10]: ≤ 10 µM
Structure (SMILES): O=C(O)CC[C@H](NC(=O)Cc1ccc(Br)cc1)C(=O)NCc1ccc([N+](=O)[O-])cc1
- IC50 [11]: ≤ 35 µM
- IC50 [12]: ≤ 35 µM
- IC50 [13]: ≤ 35 µM

- IC50 [14]: 0.0797 µM
Structure (SMILES): CSCC[C@H]1NCC(=O)NC1=O

- inhibition [15]: 71%
Structure (SMILES): CC(C)C[C@H](NC(=O)[C@@H](O)[C@H](N)Cc1ccccc1)C(=O)NCCOCCOCC(=O)Nc1cccc(C(=O)NO)c1

Structure (SMILES): CCCCNC(=O)[C@H](CCC(=O)NO)NC(=O)Cc1ccc(Cl)cc1
- IC50 [2]: < 50 µM

- IC50 [14]: 0.0884 µM
Structure (SMILES): CSCC[C@@H]1NCC(=O)NC1=O

- IC50 [16]: 0.117 µM
Structure (SMILES): COc1ccc(-c2cccc(-c3cc(OC)c(OC)c(OC)c3)n2)cc1/C=C/C(=O)NO

Structure (SMILES): CCC(=O)CCCCC[C@@H]1NC(=O)[C@H]2CCCCN2C(=O)[C@H]([C@@H](C)CC)NC(=O)[C@H](Cc2cn(OC)c3ccccc23)NC1=O [APICIDIN]
- CC50 [17]: 10 µM

- IC50 [18]: 4.3 µM
- IC50 [19]: > 20 µM
- IC50 [20]: > 20 µM
- IC50 [21]: > 20 µM
- IC50 [22]: 1.2 µM
- IC50 [23]: 0.0008 µM
- IC50 [24]: > 20 µM
Structure (SMILES): O=C(NO)[C@@H](Cc1ccccc1)n1nnc(-c2ccccc2)c1C#CC1CC1

- IC50 [22]: > 20 µM
Structure (SMILES): COc1ccc(/C=C/C(=O)NO)c(-c2ccc(-c3ccccc3)cc2)c1

- inhibition [15]: 90%
Structure (SMILES): CC(C)C[C@H](NC(=O)[C@@H](O)[C@H](N)Cc1ccccc1)C(=O)NCCCCCC(=O)Nc1ccc(NC(=O)CCCCCCC(=O)NO)cc1

- IC50 [18]: 4.5 µM
- IC50 [19]: > 20 µM
- IC50 [20]: 4.8 µM
- IC50 [22]: > 20 µM
- IC50 [24]: > 20 µM
Structure (SMILES): COc1ccc(/C=C/C(=O)NO)c(-c2ccc(Br)cc2)c1

- IC50 [25]: 0.015 µM
- IC50 [26]: 0.059 µM
- GI50 [27]: 0.11 µM
- GI50 [28]: 0.12 µM
- GI50 [29]: 0.075 µM
Structure (SMILES): O=C(/C=C/c1cccc(S(=O)(=O)Nc2ccccc2)c1)NO [BELINOSTAT]

- IC50 [14]: 0.0215 µM
Structure (SMILES): O=C1CN[C@H](Cc2ccccc2)C(=O)N1

- IC50 [22]: > 30 µM
Structure (SMILES): N[C@H](Cc1cccc(Cl)c1)C(=O)N1CCN(C(=O)c2cc(F)ccc2F)CC1

- inhibition [15]: 64%
Structure (SMILES): CC(C)C[C@H](NC(=O)[C@@H](O)[C@H](N)Cc1ccccc1)C(=O)NCCOCCOCCNC(=O)c1cccc(C(=O)NO)c1

Structure (SMILES): CCCCCNC(=O)[C@H](CCC(=O)NO)NC(=O)Cc1ccc(Br)cc1
- IC50 [2]: > 50 µM

- IC50 [30]: 7.7 µM
- IC50 [31]: 9.5 µM
- GI50 [32]: 2 µM
Structure (SMILES): COc1ccc(/C=C/C(=O)NO)c(-c2ccc3c(c2)OCO3)c1

Structure (SMILES): CCCCNC(=O)[C@H](CCC(=O)NO)NC(=O)Cc1ccc(Cl)cc1Cl
- IC50 [2]: < 50 µM

From ChEMBL document CHEMBL5625174, “Are inhibitors of histone deacetylase 8 (HDAC8) effective in hematological cancers especially acute myeloid leukemia (AML) and acute lymphoblastic leukemia (ALL)?” (Eur J Med Chem, 2023)
